In publication PMC6365497, “2-aminoimidazoles collapse mycobacterial proton motive force and block the electron transport chain” (Scientific Reports, 2019):
Converted amounts (≈) assume the structure as drawn. “And” between values parts separate entries of the source, which are not always exact repeats. Equal values may be shown once. “Also recorded” adds a separate entry of the source. Read-outs that look alike come from different tables or passages of the source.

Columns and labels:
M. tuberculosis [1] = experiment: β-lactam potentiation assay; assay type: cell-based, Mycobacterium tuberculosis
[2] = system: M. tuberculosis H37Rv mc^2 6206; assay type: cell-based, Mycobacterium tuberculosis; conditions: for NADH/NAD+ ratio: Low (≤ 62.5 µM) 2B8
[3] = system: M. tuberculosis mc^2 6206; assay type: cell-based, Mycobacterium tuberculosis; conditions: for Concentration up to which OCR increased (levelling off): stepwise increments
M. smegmatis IMVs [4] = experiment: ETC activity assay with IMVs (INT reduction); assay type: biochemical
M. tuberculosis [5] = experiment: Quantification of intracellular ATP
M. tuberculosis [6] = experiment: Kinetic measurement of alamarBlue reduction; assay type: cell-based, Mycobacterium tuberculosis
M. tuberculosis [7] = experiment: microbe, parasite or virus in culture; assay type: cell-based, Mycobacterium tuberculosis
M. smegmatis [8] = experiment: Determination of Δψ collapse by DisC3(5); assay type: cell-based; conditions: for Δψ collapse: Acute (≤ 2 h)
M. smegmatis IMVs [9] = experiment: Determination of ΔpH collapse with IMVs (ACMA); conditions: for ΔpH collapse: Acute (≤ 2 h)
M. smegmatis IMVs [10] = experiment: NADH oxidation by IMVs; assay type: biochemical
M. tuberculosis [11] = system: M. tuberculosis; set-up: method as in PMID 28749949; conditions: cited from earlier work
M. smegmatis [12] = experiment: Kinetic measurement of alamarBlue reduction
M. smegmatis [13] = experiment: MIC against M. smegmatis; assay type: cell-based
M. smegmatis IMVs [14] = assay type: biochemical
[15] = system: mycobacterial cell membrane; conditions: prolonged incubation (24 h); cited from earlier work
[16] = M. tuberculosis, compound at 50% of its MIC, MIC of β-lactam / MIC of β-lactam plus drug
[17] = M. tuberculosis, stepwise increasing concentration, media without BSA
[18] = High (> 62.5 µM) 2B8, Acute (≤ 2 h)
[19] = Low (≤ 62.5 µM) 2B8, Acute (≤ 2 h)
[20] = Low (≤ 62.5 µM) 2B8, Delayed (> 2 h)

COc1nc2ccc(Br)cc2cc1[C@@H](c1ccccc1)[C@@](O)(CCN(C)C)c1cccc2ccccc12 [BDQ, bedaquiline, reference compound]
Fold potentiation of Carbenicillin (M. tuberculosis [1]; [16]): 4x
Fold potentiation of Meropenem (M. tuberculosis [1]; [16]): 4x
β-lactam potentiation (summary) (M. tuberculosis [1]; Table S2 summary): Weak ↑
NADH/NAD^+ ratio [2]: increased
NADH/NAD+ ratio (summary) ([2]; Table S2 summary): Intermediate ↑
Effect on oxygen consumption rate (OCR) [3, 17]: significantly increased M. tuberculosis OCR
Concentration up to which OCR increased (levelling off) ([3]; M. tuberculosis): 9 µM
ETC activity (summary) (M. smegmatis IMVs [4]; Table S2 summary): N o effect
[ATP]i (summary) (M. tuberculosis [5]; Table S2 summary): S t r o ng ↓
alamarBlue reduction (summary) (M. tuberculosis [6]; Table S2 summary, mycobacteria): N o effect
MIC (M. tuberculosis [7]; Mycobacterium tuberculosis, M. tuberculosis, read-out: MIC (MIC95)): 0.125 µM (≈ 0.0694 µg/mL)
Δψ collapse (summary) (M. smegmatis [8]; Table S2 summary): N o effect
ΔpH collapse (summary) (M. smegmatis IMVs [9]; Table S2 summary): Intermediate
Effect on NADH oxidation (fluorescence decay 340ex/460em) (M. smegmatis IMVs [10]): inhibited
NADH oxidation (summary) (M. smegmatis IMVs [10]; Table S2 summary): Intermediate ↓

C[C@@H](O)[C@H]1C(=O)N2C(C(=O)O)=C(S[C@@H]3CN[C@H](C(=O)N(C)C)C3)[C@H](C)[C@H]12 [Meropenem]
MIC (MIC95) (M. tuberculosis [11]): 8 µg/mL

CCCCCCCCCCCCCNC(=O)CCCc1cnc(N)[nH]1 [RA13]
Fold potentiation of Carbenicillin (M. tuberculosis [1]): 1.5x
Fold potentiation of Meropenem (M. tuberculosis [1]): 2x
β-lactam potentiation (summary) (M. tuberculosis [1]): M a r g in a l ↑
NADH/NAD+ ratio (summary) [2]: N o effect
NADH/NAD^+ ratio [2]: inactive
Effect on oxygen consumption rate (OCR) [3]: minimal changes in OCR
O2 consumption rate (summary) [3]: Weak ↑
ETC activity (INT reduction at 490 nm) (M. smegmatis IMVs [4]): only affected INT reduction in the presence of both substrates
ETC activity (summary) (M. smegmatis IMVs [4]): Weak ↓
[ATP]i (summary) (M. tuberculosis [5]): N o effect
alamarBlue reduction (M. tuberculosis [6]): did not have an effect
alamarBlue reduction (summary) (M. tuberculosis [6]): N o effect
MIC (M. tuberculosis [7]): > 1000 µM
alamarBlue reduction (M. smegmatis [12]): did not have an effect
Effect on Δψ (membrane potential), DiSC3(5) fluorescence reversal (M. smegmatis [8]): no effect
Δψ collapse (summary) (M. smegmatis [8]): N o effect
ΔpH collapse (summary) (M. smegmatis IMVs [9]): Weak
Effect on NADH oxidation (fluorescence decay 340ex/460em) (M. smegmatis IMVs [10]): did not have any effect
NADH oxidation (summary) (M. smegmatis IMVs [10]): N o effect
MIC (M. smegmatis [13]): > 1000 µM

CSc1ccc2c(c1)N(CCC1CCCCN1C)c1ccccc1S2 (stereo not shown) [TRZ, thioridazine, reference compound]
Fold potentiation of Carbenicillin (M. tuberculosis [1]): 16x
Fold potentiation of Meropenem (M. tuberculosis [1]): 32x
β-lactam potentiation (summary) (M. tuberculosis [1]; Table S2 summary): Intermediate ↑
NADH/NAD+ ratio (summary) [2]: S t r o ng ↑
NADH/NAD^+ ratio [2]: increased
Effect on oxygen consumption rate (OCR) [3]: significantly increased M. tuberculosis OCR
Restoration of inhibited NADH oxidation by CFZ (M. smegmatis IMVs [14]): not altered by CFZ
Rescue by CFZ (summary) (M. smegmatis IMVs [14]; Table S2 summary): No
ETC activity (INT reduction at 490 nm) (M. smegmatis IMVs [4]): none and potent and intermediate
ETC activity (summary) (M. smegmatis IMVs [4]; Table S2 summary): S t r o ng ↓
[ATP]i (summary) (M. tuberculosis [5]; Table S2 summary): S t r o ng ↓
alamarBlue reduction (summary) (M. tuberculosis [6]; Table S2 summary, mycobacteria): S t r o ng ↓
MIC (M. tuberculosis [7]; Mycobacterium tuberculosis, read-out: MIC (MIC95)): 62.5 µM (≈ 23.2 µg/mL)
Δψ collapse (summary) (M. smegmatis [8]; Table S2 summary): Intermediate
ΔpH collapse (summary) (M. smegmatis IMVs [9]; Table S2 summary): S t r o ng
Effect on NADH oxidation (fluorescence decay 340ex/460em) (M. smegmatis IMVs [10]): significantly slowed down
NADH oxidation (summary) (M. smegmatis IMVs [10]; Table S2 summary): S t r o ng ↓

carbonyl cyanide m-chlorophenyl hydrazine [CCCP, reference compound]
Fold potentiation of Carbenicillin (M. tuberculosis [1]): 9.6x
Fold potentiation of Meropenem (M. tuberculosis [1]): 16x
β-lactam potentiation (summary) (M. tuberculosis [1]): Intermediate ↑
NADH/NAD+ ratio (summary) [2]: N o effect
NADH/NAD^+ ratio [2]: did not increase
Effect on oxygen consumption rate (OCR) [3]: bell-shaped, dose-response effect
O2 consumption rate (summary) [3]: ↑ t he n ↓
Rescue by CFZ (summary) (M. smegmatis IMVs [14]): N o effect
ETC activity (INT reduction at 490 nm) (M. smegmatis IMVs [4]): tendency to increase ETC activity
ETC activity (summary) (M. smegmatis IMVs [4]): Weak ↑
[ATP]i (summary) (M. tuberculosis [5]): Intermediate ↓
alamarBlue reduction (M. tuberculosis [6]): inhibited
alamarBlue reduction (summary) (M. tuberculosis [6]): Weak ↓
MIC (M. tuberculosis [7]; read-out: MIC (MIC95)): 20 µM
alamarBlue reduction (M. smegmatis [12]): inhibited
Δψ collapse (summary) (M. smegmatis [8]): S t r o ng
ΔpH collapse (summary) (M. smegmatis IMVs [9]): Intermediate
Effect on NADH oxidation (fluorescence decay 340ex/460em) (M. smegmatis IMVs [10]): tendency to accelerate NADH oxidation
NADH oxidation (summary) (M. smegmatis IMVs [10]): Weak ↑

CCCCCCC(CCCCCC)NC(=O)CCCc1cnc(N)[nH]1 [2B8]
Fold potentiation of Carbenicillin (M. tuberculosis [1]; [16]): 64x
Fold potentiation of Meropenem (M. tuberculosis [1]; [16]): 64x
β-lactam potentiation (summary) (M. tuberculosis [1]; Table S2 summary): S t r o ng ↑
NADH/NAD^+ ratio [2]: significantly increased; also recorded: persisted
NADH/NAD+ ratio ([2]; Acute (≤ 2 h)): N o effect- ↑
NADH/NAD+ ratio ([2]; Delayed (> 2 h)): N o effect- ↑
NADH/NAD+ ratio (summary) ([2]; Table S2 summary): S t r o ng ↑
Concentration causing catastrophic cell membrane disruption [15]: ≥ 125 µM
O2 consumption rate [3, 18]: ↓ to basal
Concentration required to decrease OCR ([3]; M. tuberculosis): ≥ 93 µM
OCR versus basal OCR ([3]; M. tuberculosis, 250 µM 2B8 (highest tested concentration)): no statistical difference
Effect on oxygen consumption rate (OCR) [3, 17]: OCR increased
Concentration up to which OCR increased (levelling off) ([3]; M. tuberculosis): 62.5 µM
O2 consumption rate (summary) ([3]; Table S2 summary): ↑ t he n ↓
Restoration of inhibited NADH oxidation by CFZ (M. smegmatis IMVs [14]; M. smegmatis IMVs treated with 5 mM KCN, 80 µM TRZ or 125 µM 2B8, 42 µM CFZ added): also restored by CFZ
Rescue by CFZ (summary) (M. smegmatis IMVs [14]; Table S2 summary): Partial
ETC activity (INT reduction at 490 nm) (M. smegmatis IMVs [4]): potently inhibited
ETC activity (M. smegmatis IMVs [4]; [19]): N o effect
Concentration with inhibitory effect on the ETC (M. smegmatis IMVs [4]; M. smegmatis IMVs): ≥ 78 µM
ETC activity (summary) (M. smegmatis IMVs [4]; Table S2 summary): S t r o ng ↓
[ATP]i (M. tuberculosis [5]; [18]): N o effect
[ATP]i (M. tuberculosis [5]; [19]): N o effect
[ATP]i (M. tuberculosis [5]; [20]): N o effect- ↓
[ATP]i (summary) (M. tuberculosis [5]; Table S2 summary): S t r o ng ↓
alamarBlue reduction (M. tuberculosis [6]): inhibited
alamarBlue reduction (M. tuberculosis [6]; [20]): N o effect
alamarBlue reduction (M. tuberculosis [6]; M. tuberculosis, 2B8 62.5 µM): not
alamarBlue reduction (summary) (M. tuberculosis [6]; Table S2 summary, mycobacteria): S t r o ng ↓
MIC (M. tuberculosis [7]): 250 to 500 µM and 250 µM
alamarBlue reduction (M. smegmatis [12]): inhibited
Effect on Δψ (membrane potential), DiSC3(5) fluorescence reversal (M. smegmatis [8]): rapidly depolarized the membrane potential
Δψ collapse (M. smegmatis [8]; High (> 62.5 µM) 2B8): S t r o ng
Δψ collapse (M. smegmatis [8]; Low (≤ 62.5 µM) 2B8): S t r o ng
Δψ collapse (summary) (M. smegmatis [8]; Table S2 summary): S t r o ng
Effect on ΔpH, ACMA fluorescence reversal (M. smegmatis IMVs [9]): collapsed the ΔpH
ΔpH collapse (M. smegmatis IMVs [9]; High (> 62.5 µM) 2B8): S t r o ng
ΔpH collapse (M. smegmatis IMVs [9]; Low (≤ 62.5 µM) 2B8): Low- Strong
ΔpH collapse (summary) (M. smegmatis IMVs [9]; Table S2 summary): S t r o ng
MIC (MIC95) (M. tuberculosis [11]): 250 µM
Effect on NADH oxidation (fluorescence decay 340ex/460em) (M. smegmatis IMVs [10]): significantly inhibited
NADH oxidation (M. smegmatis IMVs [10]; [19]): N o effect
Concentration at which NADH oxidation is significantly inhibited (M. smegmatis IMVs [10]; M. smegmatis IMVs): greater than 62.5 µM
NADH oxidation (summary) (M. smegmatis IMVs [10]; Table S2 summary): S t r o ng ↓
MIC (M. smegmatis [13]; M. smegmatis, +0.5% BSA): 125 to 250 µM
MIC (M. smegmatis [13]; M. smegmatis, No BSA): 62.5 µM (≈ 21.9 µg/mL)

CC1(C)S[C@@H]2[C@H](NC(=O)C(C(=O)O)c3ccccc3)C(=O)N2[C@H]1C(=O)O (stereo partly shown) [Carbenicillin]
MIC (MIC95) (M. tuberculosis [11]): 1000 µg/mL
